The values below come from PubChem BioAssay AID1552 (Sanford-Burnham Center for Chemical Genomics, 2009).

Each structure is given as a SMILES string. Calls of active or inactive are those of the source. How the calls were made is not given here. Bounds are passed on as bounds.

Ubiquitin-conjugating enzyme E2 N (Homo sapiens), sequence (P61088 whole entry, looked up): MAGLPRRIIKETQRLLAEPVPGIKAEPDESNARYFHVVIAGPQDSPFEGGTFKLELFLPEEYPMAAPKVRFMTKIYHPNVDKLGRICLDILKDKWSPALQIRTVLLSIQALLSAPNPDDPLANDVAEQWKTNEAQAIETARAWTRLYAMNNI

The assay addresses Ubiquitin-conjugating enzyme E2 N (Homo sapiens) (UniProt P61088). Briefly: NMR detection of UBE2N ligand binding – biophysical, purified protein (AID 1552). Particulars: NMR binding to purified UBE2N.
In general, Kd refers to the free concentration of one partner at which half of the binding sites on the other are occupied at equilibrium, for simple one-to-one binding. For the compound `Cc1nnc(SCc2ccc(F)cc2)s1`, the Kd was > 4 mM (inactive).
For the compound `NC(=O)C1CC2C=CC1C2` (configuration not stated), the Kd was > 4 mM (inactive).
In the case of `O=c1c2ccccc2nc2n1CCCCN2`, the Kd is > 4 mM (inactive).
As to `CC(=O)c1cnc2nc(C(F)(F)F)nn2c1C`, the Kd was > 4 mM (inactive).
In the case of `NC(Cn1ccc(=O)c(O)c1)C(=O)O` (configuration not stated), the Kd is > 4 mM (inactive).
Turning to `CCC(C)C(=O)OC1[C@@H]2CC3=C4CC(=O)O[C@@H](c5ccoc5)[C@]4(C)CCC3C(C)(C2=O)[C@@H](CC(=O)OC)C1(C)C` (some centres not stated), the Kd was > 4 mM (inactive).
As for `COC(=O)C[C@H]1C2(C)CC34OC5(C)O[C@@]6([C@H](OC(C)=O)C(OC(C)=O)[C@]7(C)C(/C(=C(/O)C(C)C)C(=O)O[C@H]7c7ccoc7)[C@@]6(O5)[C@H](OC(C)=O)[C@@]3(O)C2OC(=O)C(C)C)[C@]14C` (some centres not stated), the Kd is > 4 mM (inactive).
For the compound `Nc1cccc(-c2cnco2)c1`, the Kd is > 4 mM (inactive).
With `O=C(O)C1CC(=O)N(C2Cc3ccccc3C2)C1` (configuration not stated), the Kd was > 4 mM (inactive).
With `Cc1[nH]c2ccccc2c1C(=O)CSc1ncn[nH]1`, the Kd was > 4 mM (inactive).
With `Cc1cc(CN2C(=O)c3ccccc3C2=O)on1`, the Kd is > 4 mM (inactive).
`COc1ccc(-c2nc(N)n(C(C)=O)n2)cc1`: the Kd was > 4 mM (inactive).
Consider `NC(=O)c1ccccc1NC(=O)C1CC1`, for which the Kd is > 4 mM (inactive).
For the compound `O=C(NN1CCOCC1)c1ccccc1F`, the Kd is > 4 mM (inactive).
In the case of `O=C(Nc1nccs1)c1ccc(=O)[nH]n1` it was > 4 mM (inactive).
With `COc1cccc2c1CCC1=CC(=O)CC[C@@]12C`, the Kd is > 4 mM (inactive).
The value for `O=C1Nc2ccc(S(=O)(=O)NCCO)c3cccc1c23` was > 4 mM (inactive).
`Cn1nc(C(=O)N2CCOCC2)c2ccccc2c1=O`: the Kd was > 4 mM (inactive).
Turning to `CS(=O)(=O)N1CCN(C(=O)c2ccccc2F)CC1`, the Kd was > 4 mM (inactive).
The value for `Clc1ccc(-c2nnc3ccccn23)cc1` was > 4 mM (inactive); that for `CC(C)(C)P(=O)(O)c1ccccc1` was > 4 mM (inactive); that for `CC(=O)NC12CC3CC(CC(O)(C3)C1)C2` was > 4 mM (inactive).
For `CC(=O)c1c(C)nc(-c2cccs2)n1O`, the Kd was > 4 mM (inactive).
Turning to `CC1=C2C(O)C(=O)OC3CC4C(C)(C)C(=O)C=C[C@]4(C)C(CC1)[C@]23C` (some centres not stated), the Kd is > 4 mM (inactive).
As for `O=[N+]([O-])c1c[n+]([O-])n(-c2ccccc2)n1`, the Kd was > 4 mM (inactive).
With `CN(c1ccccc1C(=O)N1CCCC1)S(C)(=O)=O`, the Kd is > 4 mM (inactive).
Take `O=C(Nc1ccccn1)c1cc(-n2cnnc2)ccc1Cl`: the Kd is > 4 mM (inactive).
For the compound `Nc1ccc(Cc2ccncc2)cc1`, the Kd is > 4 mM (inactive).
The value for `COc1ccc2c(c1)OC1(O)COc3cc(OC)c(OC)cc3C1=C2` (configuration not stated) was > 4 mM (inactive); that for `Cc1nn(C)c(C)c1C(=O)O` was > 4 mM (inactive); that for `Cc1cc2c(N)cccc2nn1` was > 4 mM (inactive).
`S=c1nc2c(n[nH]1)[nH]c1ccccc12`: the Kd is > 4 mM (inactive).
Consider `C=C[C@@](C)(O)CCC1C(=C)CCC2[C@@](C)(CO)CCC[C@]12C` (some centres not stated), for which the Kd is > 4 mM (inactive).
In the case of `Nc1ccc(C(=O)NCC2CCCO2)cc1` (configuration not stated) it was > 4 mM (inactive); in that of `Cc1occc1C(=O)NCc1ccccc1F`, > 4 mM (inactive).
In the case of `Cn1cnnc1SCC(=O)Nc1nccs1` it was > 4 mM (inactive); in that of `O=C(O)CSCc1ccc(Cl)cc1`, > 4 mM (inactive); in that of `O=C(O)c1cnc2sc3ccccc3n2c1=O`, > 4 mM (inactive).
Consider `O=c1[nH]cc(Nc2ccccc2)c(=O)[nH]1`, for which the Kd was > 4 mM (inactive).
`Fc1cc2nccnc2cc1N1CCSCC1`: the Kd is > 4 mM (inactive).
As for `OC1CCC(C(F)(F)F)CC1` (configuration not stated), the Kd is > 4 mM (inactive).
In the case of `Nc1oncc1-c1ccccn1`, the Kd is > 4 mM (inactive).
`O=C(Nc1nnc(-c2ccccc2Cl)o1)c1ccco1`: the Kd was > 4 mM (inactive).
With `COC(=O)CC1NC2CCCCC2NC1=O` (configuration not stated), the Kd is > 4 mM (inactive).
With `CN1CCN(c2ncnc3nc[nH]c23)CC1`, the Kd was > 4 mM (inactive).
On to `CCOC(=O)c1cnn2ccccc12`, for which the Kd was > 4 mM (inactive).
With `CC(=O)Oc1ccccc1N1C(=O)C=CC1=O`, the Kd is > 4 mM (inactive).
As for `CC(=O)OC[C@H]1O[C@@H](Oc2cc(OC(C)=O)c3c(=O)cc(-c4ccc(OC(C)=O)cc4)oc3c2)[C@H](OC(C)=O)[C@@H](OC(C)=O)[C@@H]1OC(C)=O`, the Kd was > 4 mM (inactive).
With `NC(Cc1c[nH]c2ccccc12)C(=O)O` (configuration not stated), the Kd was > 4 mM (inactive).
As for `NC(=O)c1ccc(C(N)=O)c(-c2ccccc2)c1`, the Kd was > 4 mM (inactive).
In the case of `COc1cc(C2NC(=S)NC(C)=C2C(C)=O)ccc1O` (configuration not stated) it was > 4 mM (inactive); in that of `O=C(/C=C/c1ccc(O)c(O)c1)O[C@@H]1C[C@](O)(C(=O)O)C[C@@H](O)[C@H]1O`, > 4 mM (inactive); in that of `O=C1Cc2ccccc2N1c1ccccc1`, > 4 mM (inactive).
The value for `Cc1cc(NC(=O)CSc2ccnc(=O)[nH]2)no1` was > 4 mM (inactive).
On to `OCc1snnc1-c1ccccc1`, for which the Kd is > 4 mM (inactive).
For `Cc1cc(=O)n2nc(-c3ccccc3)sc2n1`, the Kd was > 4 mM (inactive).
Consider `CCOC(=O)C1CCC(=O)c2cccn21` (configuration not stated), for which the Kd is > 4 mM (inactive).
The value for `Nc1nc2ccc(N3CCOCC3)cc2s1` was > 4 mM (inactive); that for `Cc1csc(SCC(=O)N2CCCC2)n1` was > 4 mM (inactive).
The value for `CC(=O)NC(C)(C)C1CC=C(C)/C(=N\O)C1` (configuration not stated) was > 4 mM (inactive).
For `Nc1ncnc2c1ncn2CCN1CCCCC1`, the Kd was > 4 mM (inactive).
On to `COc1c2c(c(CC=C(C)C)c3oc(=O)c(-c4ccc(O)cc4)c(O)c13)OC(C)(C)C=C2`, for which the Kd is > 4 mM (inactive).
In the case of `Cc1ccc(C(=O)CS(C)(=O)=O)cc1`, the Kd was > 4 mM (inactive).
Take `COc1ccc(-c2cc(=O)c3c(OC)c(OC)c(OC)c(OC)c3o2)cc1OC`: the Kd was > 4 mM (inactive).
Consider `O=C(O)c1cccc2c1OCCCO2`, for which the Kd was > 4 mM (inactive).
In the case of `O=C1CCCc2c(O)cccc21` it was > 4 mM (inactive).
For the compound `COc1nc(-c2ccccc2)ccc1-c1noc(C)n1`, the Kd is > 4 mM (inactive).
On to `Cc1c(C(=O)NCc2ccccn2)oc2ccccc12`, for which the Kd is > 4 mM (inactive).
In the case of `CCCCCCCCCCCC1=C(O)C(=O)C=C(O)C1=O` it was > 4 mM (inactive); in that of `O=C(COc1ccccc1Cl)N1CCCC1`, > 4 mM (inactive); in that of `Nc1ccc(-c2cn3c(n2)SCC3)cc1`, > 4 mM (inactive).
Regarding `CC(=O)NC(NC(C)=O)c1ccccc1`, the Kd is > 4 mM (inactive).
`CC1(C)NCCN2C(=O)CSC21` (configuration not stated): the Kd was > 4 mM (inactive).
As for `CC(=O)Oc1ccc(N2C(=O)C3C4C=CC(O4)C3C2=O)cc1` (configuration not stated), the Kd is > 4 mM (inactive).
In the case of `OCC1COc2ccccc2C1` (configuration not stated), the Kd is > 4 mM (inactive).
For the compound `NC(=O)CSc1ccc2nnc(-c3cccs3)n2n1`, the Kd was > 4 mM (inactive).
In the case of `COC1=CC(=O)C[C@@H](C)[C@]12Oc1c(Cl)c(OC)cc(OC)c1C2=O` it was > 4 mM (inactive).
`NCc1ccc(CN2CCOCC2)cc1`: the Kd was > 4 mM (inactive).
Regarding `c1ccc(CCN2CCN(CCc3ccccn3)CC2)nc1`, the Kd is > 4 mM (inactive).
As to `CC(Sc1ncn[nH]1)C(=O)O` (configuration not stated), the Kd is > 4 mM (inactive).
For the compound `Nc1cc(=O)[nH]c(=S)n1CCc1ccccc1`, the Kd was > 4 mM (inactive).
`COc1ccccc1-c1cn[nH]c(=S)n1`: the Kd is > 4 mM (inactive).
Take `Cc1cc(C)nc(/N=C(/N)N2CCN(C)CC2)n1`: the Kd is > 4 mM (inactive).
Regarding `Nc1nnc(SCc2ccc(F)cc2)s1`, the Kd is > 4 mM (inactive).
For the compound `O=c1c(-c2cccs2)[n+]([O-])c2ccccc2n1O`, the Kd is > 4 mM (inactive).
Consider `CSc1ccccc1C(=O)N1CCOCC1`, for which the Kd is > 4 mM (inactive).
Turning to `CC(=O)c1cc(CN2C(=O)c3ccccc3C2=O)cs1`, the Kd is > 4 mM (inactive).
As for `NCc1ccc2c(c1)OCO2`, the Kd was > 4 mM (inactive).
As for `OCCNC(=S)Nc1ccc(F)cc1`, the Kd was > 4 mM (inactive).
In the case of `O=C(O)c1cc(O)c2c(c1)C(=O)c1cc(O)cc(O)c1C2=O`, the Kd is > 4 mM (inactive).
Take `C=C[C@H]1CN2CC[C@H]1C[C@@H]2[C@H](O)c1ccnc2ccccc12`: the Kd was > 4 mM (inactive).
For the compound `O=C(NCCCSc1ncccn1)Nc1ncccn1`, the Kd was > 4 mM (inactive).
For `COc1ccc(-c2cc(=O)c3ccccc3o2)cc1`, the Kd was > 4 mM (inactive).
Take `Cc1c(C)c2c(c(C)c1O)CCC(C)(CCCC(C)CCCC(C)CCCC(C)C)O2` (configuration not stated): the Kd is > 4 mM (inactive).
Consider `C=C(C)[C@H]1COc2cc3oc(=O)ccc3cc2O1`, for which the Kd was > 4 mM (inactive).
`Cn1c(=O)n(CC(=O)N2CCOCC2)c2ccccc21`: the Kd was > 4 mM (inactive).
In the case of `CN(C)C(=O)c1ccccc1-c1ccccc1` it was > 4 mM (inactive); in that of `CP(C)(=O)CCC(=O)O`, > 4 mM (inactive); in that of `CCC[C@H]1CC2=C(C[C@@H](CC)CC3=C1C(=O)OC3=O)C(=O)OC2=O`, > 4 mM (inactive).
As to `COc1ccc(-c2cc(=O)c3c(OC)c(OC)c(OC)c(OC)c3o2)cc1`, the Kd was > 4 mM (inactive).
As to `Cc1cc(C)nc(NC(N)=NCc2ccco2)n1`, the Kd was > 4 mM (inactive).
For `Cc1nnc(SCC(=O)Nc2ccccc2)[nH]c1=O`, the Kd was > 4 mM (inactive).
